Results from patent US7256200B2, “Method and composition for potentiating an oplate analgesic” (The Board of Trustees of the University of Illinois, a body …, priority 2003, dated 2007).
Entries after “also recorded” stand apart in the source; their conditions may differ.

How the values were obtained:
[1] = biological target: CaMKII (Homo sapiens, UniProt Q9UQM7); settings: structural analog of KN93 used as control; cited from earlier work
[2] = Acute model of opioid tolerance (single s.c. morphine 100 mg/kg); type: in vivo; settings: for prevention of opioid tolerance, acute model: administered simultaneously with morphine 100 mg/kg s.c., FIG. 6
Excerpt: (§1) Acute tolerance and dependence model is a method commonly used by researchers. […] In addition, the CaMKII inhibitor KN93 also was effective in reversing an already-established tolerance or dependence in the model (FIGS. 8 and 9). […] All effects are dose-dependent on the magnitude of inhibition of CaMKII.

[3] = system: morphine-pelleted rats; test: Morphine antinociceptive tolerance in morphine-pelleted rats, 52° C. warm water tail-flick test; type: in vivo, rat
Method: Individual groups of eight rats were implanted with i.th. catheters and allowed to recover for 5 to 7 days.
Individual groups of eight rats were implanted with i.th. catheters and allowed to recover for 5 to 7 days. […] KN93 dose-response effect was determined and compared to its effect in inhibiting CaMKII activity.
Male Sprague-Dawley rats (250-350 g) were used in all experiments.
For i.th. drug administration, rats were prepared according to the method described by Sakura et al. (1996). While under isoflurane anesthesia, an 8 cm length of PE10 tubing (32 gauge) was inserted through an incision made in the atlantooccipital membrane to the level of the lumbar enlargement. The catheter then was secured to the musculature at the site of incision, which then was closed. The rats were allowed 5 to 7 days to recover before experiments begin. […] Intrathecally administered substances were dissolved in saline and administered in a volume of 5 μl through a tubing with calibrated length connecting the i.th. catheter with the injection syringe. Progress of the injection was monitored carefully by observing the movement of a small air bubble (1 μl in volume) through the tubing. The catheter was cleared by flushing with 9 μl saline. In all cases, a dye was injected into the cannula at the termination of the experiment to ensure correct i.th. placement.
Briefly, while under isoflurane anesthesia, a 1.5 cm incision was made on the back of the animal. […] These pellets were left for less than 7 days unless otherwise indicated.
Latency to warm water tail withdrawal response was determined in the manner described previously (Wang et al., 2001, Vanderah et al., 2001). The one-third of distal tail was immersed into a water bath maintained at 52° C. […] The data were converted to % MPE (maximal possible effect), defined as 100×(test-control)/(cutoff-control), where control was the predrug observation, test was the postdrug observation, and cutoff was 10 seconds. Dose-response curves were generated over time to determine the time of peak effect, the dose producing 50% MPE (A50), and its confidence intervals (Tallarida et al., 1986).

[4] = Acute model of opioid dependence (single s.c. morphine 100 mg/kg); type: in vivo
Excerpt: as §1

[5] = system: PKC; settings: at doses administered; cited from earlier work
[6] = system: mice; test: Chronic mouse model of opioid tolerance (s.c. 75 mg morphine pellet); type: in vivo; settings: FIG. 5
Excerpt: Additional in vivo tests corroborated initial test results showing that administration of a CaMKII inhibitor reduces or eliminates opioid tolerance and dependence. […] Administration of a CaMKII inhibitor, i.e., KN93, effectively reversed the established tolerance to opioids (FIG. 5). The effect of KN93 is dose dependent.

[7] = system: protein kinase A; settings: at doses administered; cited from earlier work
[8] = system: CaMKII; test: Spinal CaMKII activity (pCaMKII Western blot) in morphine-pelleted rats; type: in vivo, rat; settings: lumbar spinal cord, morphine vs placebo pelleted rats, two pairs of animals, β-actin control; FIG. 4
Excerpt: The average increase of CaMKII activity from two pairs of animals was 250%.
Briefly, while under isoflurane anesthesia, a 1.5 cm incision was made on the back of the animal. Morphine and placebo pellets were implanted into the subcutaneous space and the incision was closed with wound clips. These pellets were left for less than 7 days unless otherwise indicated.
Rats were sacrificed by carbon dioxide inhalation and decapitated. The spinal column was cut through at the S1/S2 level. A 16-gauge needle was inserted in the sacral vertebral canal, attached to a syringe containing ice-cold saline, and the spinal cord was ejected through the cervical opening. The spinal cord was placed on ice in a glass Petri dish and rapidly dissected using a dissecting microscope. For consistency, the lumbar enlargement corresponding to the L1 to L6 spinal segments was excised and used for all assays. […]
Spinal segments or harvested SH-SY5Y cells were homogenized on ice in RIPA buffer (1% NP-40, 0.5% sodium deoxycholate, 0.1% sodium dodecyl sulfate (SDS), 5 mM EDTA in PBS, pH 7.4) (3 ml/g wet tissue, or 0.6 ml/10 cm dish) in the presence of protease inhibitors (0.05 mg/ml pepstatin, 0.05 mg/ml aprotinin, 0.1 mg/ml phenylmethylsulfonyl fluoride). […] ECL-detected bands were analyzed using a densitometer and. Quantity One analysis program (BioRad, Hercules, Calif.).

CaMKII (Homo sapiens, UniProt Q9UQM7), sequence (Q9UQM7 whole entry): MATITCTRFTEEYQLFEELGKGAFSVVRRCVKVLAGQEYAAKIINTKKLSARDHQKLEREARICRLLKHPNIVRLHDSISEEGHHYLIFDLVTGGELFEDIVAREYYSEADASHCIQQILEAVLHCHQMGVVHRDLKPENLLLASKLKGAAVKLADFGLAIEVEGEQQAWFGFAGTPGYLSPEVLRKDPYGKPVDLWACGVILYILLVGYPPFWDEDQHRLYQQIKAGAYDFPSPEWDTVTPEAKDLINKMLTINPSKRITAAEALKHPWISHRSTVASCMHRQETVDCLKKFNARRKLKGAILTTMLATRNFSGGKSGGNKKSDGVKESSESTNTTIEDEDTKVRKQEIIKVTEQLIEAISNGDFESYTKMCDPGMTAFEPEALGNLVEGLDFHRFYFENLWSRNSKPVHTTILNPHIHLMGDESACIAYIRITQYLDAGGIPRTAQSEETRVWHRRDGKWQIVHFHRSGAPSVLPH

| Compound | inhibition of CaMKII [1] | prevention of opioid tolerance, acute model [2] | effect on established morphine antinociceptive tolerance ([3]; KN93 15 nmol i.th. 15 minutes before i.th. morphine, 45 minutes before tail-flick, p<0.05 vs MS group, FIG. 3) | effect on basal nociception ([3]; KN93 alone, data not shown) | effect on morphine-antinociception in naïve rats ([3]; naïve rats, data not shown) | effect on morphine-induced analgesia ([3]; summary of test results) | prevention of opioid dependence, acute model ([4]; administered simultaneously with morphine 100 mg/kg s.c., FIG. 7) | reversal of established opioid dependence, acute model ([4]; already-established dependence, FIG. 9) | reversal of established opioid tolerance, acute model ([2]; already-established tolerance, FIG. 8) | inhibition of PKC [5] | effect on established opioid tolerance, chronic model ([6]; chronic morphine pellet) | inhibition of protein kinase A [7] | antinociceptive effect of acute i.th. morphine in morphine-pelleted vs placebo-pelleted rats ([3]; two 75 mg morphine pellets s.c., day 5, i.th. morphine 10 μg, 30 minutes, FIG. 3) | average increase of CaMKII activity (pCaMKII content) [8] | antinociceptive effects of morphine after chronic morphine treatment ([6]; s.c. 75 mg controlled-release pellet up to seven days) |
| --- | --- | --- | --- | --- | --- | --- | --- | --- | --- | --- | --- | --- | --- | --- | --- |
| COc1ccc(S(=O)(=O)Nc2ccccc2CN(C)C/C=C/c2ccc(Cl)cc2)cc1 [KN92] | does not inhibit | does not affect opioid tolerance |  |  |  |  |  |  |  |  |  |  |  |  |  |
| COc1ccc(S(=O)(=O)N(CCO)c2ccccc2CN(C)CC=Cc2ccc(Cl)cc2)cc1 [KN93] |  | prevents opioid tolerance | reversed; also recorded: blocked | did not alter | nor did KN93 affect | does not affect | dose-dependently prevents | dose-dependently reverses | dose-dependently reverses | does not inhibit | dose-dependently reverses | does not inhibit |  |  |  |
| CN1CC[C@]23c4c5ccc(O)c4O[C@H]2[C@@H](O)C=C[C@H]3[C@H]1C5 [morphine] |  |  |  |  |  |  |  |  |  |  |  |  | significantly reduced antinociceptive effect | 250% | significantly reduced antinociceptive effects |
